# Reference: a melting point compilation (Tetko et al.; mined from patent text by program, amines drawn as free bases though some values may be those of a salt)
# Residues, ends and D or L forms follow the SMILES beside them. *: point of attachment. Cbz = O=C(OCc1ccccc1)*
row,Compound,melting point [°C]
1,CCOC(=O)c1ccc(-c2cc(O)c(C(CC(C)C)SC3CCCC3)c(=O)o2)cc1 (configuration not stated),174 to 176
2,CCOC(=O)CCSc1nnsc1-c1ccc(Cl)cc1,71.5 to 73.5
3,Cc1[nH]c(=S)[nH]c(=O)c1CCc1ccccc1,210 to 214
4,CC(C)(C)C#Cc1cc(Cl)cc2c1OC(C(F)(F)F)C(C(=O)O)=C2 (configuration not stated),218 to 222
5,Nc1ccc(C2OCCO2)nc1,81 to 82
6,CC(C)N(C(=O)n1oc(=O)n(C)c1=O)c1ccc(Cl)cc1,121 to 123
7,CCOCCOc1cccc2oc(-c3ccccc3)cc(=O)c12,94 to 96
8,O=C(O)c1ccccc1Oc1ccccc1O,147 to 149
9,COc1ccccc1N1CCN(CCCNC(=O)NC23CC4CC(CC(C4)C2)C3)CC1,181 to 182
10,CCCCCCc1c(CCCC)nc2ncnn2c1N,134 to 136
11,N#CCC(=O)Nc1cc(Cl)c(Cl)cc1[N+](=O)[O-],156 to 158
12,Nc1ncn(C2OC(CO)C(O)C2O)c2nc(=O)sc1-2 (configuration not stated),132 to 134
13,Cc1cccc2oc3cc(Cl)ccc3c(=O)c12,111 to 113
14,CCOC(=O)C1CCN(c2ncc(NS(=O)(=O)c3ccccc3Br)c(NCc3ccc4c(c3)OCO4)n2)CC1,160 to 161
15,CCn1ncc2c3onc(-c4cccc(Cl)c4)c3cnc21,178 to 179
16,CC(C)(C)c1ccc(-c2cc(-c3cccs3)[nH]n2)cc1,61 to 65
17,O=NSC1(CCO)C2CC3CC(C2)CC1C3 (configuration not stated),77 to 79
18,CCCCN(C)Cc1[nH]c2ccccc2c1CC1C(=O)N(c2ccccc2)N=C1C (configuration not stated),180 to 200
19,Cc1cccc(-c2[nH]c(C(C)C)nc2-c2ccc(F)c(-c3ccc(S(C)(=O)=O)cc3)c2)n1,113 to 115
20,CCCN1NC(c2ccc(C)cc2)C2=C1C(=Cc1ccc(C)cc1)CSC2 (configuration not stated),140 to 143
21,CC=CCNc1cc(C(=O)O)cc(S(N)(=O)=O)c1Sc1ccc(NC(C)=O)cc1,148
22,CCNC(=O)N1CCC(c2[nH]nc3c2C(=O)c2c(NC(=O)NN4CCOCC4)cccc2-3)CC1,215 to 216
23,CCCc1nc2c(N)nc3cccnc3c2n1Cc1cc(-c2ccc(F)cc2)no1,238 to 239
24,COC(=O)c1cccc2c1c1c(O)c3c(cc1n2Cc1ccccc1)CCCC3,174 to 176
25,COC(=O)C(C)Oc1ccc(NC(=O)CCCCCO)cc1 (configuration not stated),62 to 64.5

row,Compound,melting point [°C]
1,CCOC(=O)c1nnc2ccc(NC(C)=O)cc2c1O,280 to 281
2,ICCCCCOc1ccc(C2=C(c3ccccc3)CCCc3cc(OC4CCCCO4)ccc32)cc1 (configuration not stated),109 to 111
3,Cn1c(CO)c(-c2ccc(F)cc2)c2ccccc21,99 to 104
4,CC1=Nc2ccccc2CC(c2ccsc2)N1C (configuration not stated),113 to 117
5,COC(=O)C1Cc2c([nH]c3ccccc23)C(c2ccccc2Cl)N1 (configuration not stated),154
6,c1ccc(-c2nnc(Nc3ccc4c(c3)ncn4-c3ccccc3)c3ccccc23)cc1,227 to 229
7,O=C(Nc1nnc(C2CC2)o1)C1c2ccccc2Oc2ccccc21,246 to 248
8,N#Cc1c(Nc2cccc(Cl)c2)nn(Cc2ccccc2)c1N,234 to 236
9,O=C(C1CCC(Nc2nccc(-n3cc(Cc4ccc(-c5ccncc5)cc4)nn3)n2)CC1)N1CCC(O)CC1 (configuration not stated),266 to 267
10,Cc1ccccc1NC(=N)NC12CC3CC(CC(C3)C1)C2,160 to 161
11,N=C(N)c1ccc(CC23CCCN2C(=O)N(c2cc(Cl)cc(Cl)c2)C3=O)cc1 (configuration not stated),188
12,CCC(Oc1cc(Cl)cc(Cl)c1)C(=O)NCc1ccccc1C (configuration not stated),135 to 137
13,CN1CCN(C(=O)Nc2ccc3c(c2Cl)C(c2ccccc2F)=NCC(=O)N3C)CC1,154
14,FC(F)(F)c1cc(-c2ccc(Cl)c(Cl)c2)nc2c(-c3nc(Nc4ccccn4)no3)cnn12,289
15,CC(/C=C/C(=O)N1CCCc2cc3c(cc21)C(C)(C)CCC3(C)C)=C\C(=O)O,225 to 227
16,CN(C)Cc1ccc(C(=O)Nc2nc(-c3ccco3)c(C(=O)C3CCOCC3)s2)cc1,109 to 112
17,CCCCc1ncc(C(=O)OCC)c(N(C)Cc2ccc(-c3ccccc3-c3nnn[nH]3)cc2)n1,159 to 161
18,C#CCONC(=O)c1nc(-c2ccc(Cl)c(OC)c2F)cc(N)c1Cl,180 to 183
19,CCOc1ccccc1OCC1(O)CCNC1 (configuration not stated),108 to 110
20,CCOCCn1cc(C2CCN(CCOc3ccc(C)cc3C(=O)O)CC2)c2cc(OC)ccc21,144 to 146
21,O=C(OCCN1CCOC1=O)c1ccccc1Nc1ccnc2cc(C(F)(F)F)ccc12,124 to 125
22,Cc1nnc(SCC2=C(C(=O)O)N3C(=O)C(NC(=O)CC4=CSCCS4)C3SC2)s1 (configuration not stated),170
23,CC(=O)CCOc1c(-c2ccc(S(C)(=O)=O)cc2)cnn(-c2ccc(F)c(F)c2)c1=O,134 to 135
24,N#Cc1cccc(Oc2ncccc2OCCCc2ccncc2O)c1,84 to 86
25,CCCOc1cc(=O)n(CCC)c(=O)n1Cc1ccc(-c2ccccc2C2NOC(=O)N2)cc1 (configuration not stated),129 to 132

row,Compound,melting point [°C]
1,O=C(O)c1ccc(S(=O)(=O)Oc2ccc(-c3ccc(-c4c(C(=O)c5ccccc5)oc5ccccc45)cc3)cc2[N+](=O)[O-])cc1O,105 to 107
2,CC1(C)CC(=O)C2C3CCCOC3C2(C)C1 (configuration not stated),111 to 112
3,Cc1nn(C)c2nc(N)c(-c3cccc(Cl)c3)nc12,224 to 226
4,Cc1nc(-c2ccc(F)cc2Cl)nn1-c1ccccc1C(F)(F)F,116
5,O=C(c1ccccc1)N1CCCC2=C1CCc1cc(Cl)ccc12,194 to 196
6,COC(=O)Cc1ccc2c(c1)C(C)(C)CCC2(C)C,83 to 85
7,Cc1cccc(C)c1CNc1cc(C(=O)NCCO)cc2c1nc(C)n2C,259 to 260
8,O=C(Nc1cc(Cl)ccc1S(=O)(=O)c1ccccc1)N[C@@H](Cc1ccc(NC(=O)c2c(Cl)cccc2Cl)cc1)C(=O)O,242
9,CON=CC(C)(C)C(O)(COc1cccc2ccccc12)Cn1ccnc1 (configuration not stated),177 to 178
10,C=CCc1c(OC)cc(Cc2cnc(N)nc2N)cc1OC,185 to 187
11,N#Cc1ccc(CCC(=O)c2c(O)c3cccnc3n(-c3ccccc3)c2=O)cc1,248 to 249
12,CC(=O)Nc1cccc(-c2ccc(C)c(COc3cccc4ccc(C)nc34)c2C)c1,197 to 199
13,CC(C)(C)OC(=O)Nc1ccc(-c2cccc(F)c2)cc1[N+](=O)[O-],93 to 96
14,CCCc1nccn1C(C)COCC1=C(C(=O)OCC)C(c2ccccc2Cl)C2=C(CCCC2=O)N1 (configuration not stated),127 to 131
15,CSc1ccc(/C=C/c2nc3ccccc3n2-c2ccccn2)cc1,140 to 141
16,CC(=O)Nc1ccc2oc(C(=O)O)cc2c1,> 300
17,COc1cc(OC)nc(Sc2nccc(-c3cccc(Cl)c3)c2C(=O)NS(C)(=O)=O)n1,54 to 58
18,COC(=O)n1c(=O)oc2c(Cl)c(Cl)c(Cl)cc21,163 to 164
19,Cc1cc(-c2ccc(Cl)cc2)nn2c(=O)[nH]nc12,278 to 280
20,CCOC(=O)C(=CNc1coc2ccccc2c1=O)C(=O)OCC,155 to 157
21,CNC(=O)NS(=O)(=O)c1cc(CCNC(=O)c2cc(C(C)(C)C)ccc2OC)ccc1OC,209 to 212
22,Nc1ncnc2c1ncn2[C@H]1CO[C@@H](CO)C1,183 to 185
23,CCOC(=O)c1cnc(Cl)c2c(C)n[nH]c12,180
24,CC(Br)C(=O)OCN1C(=O)NC(c2ccccc2)(c2ccccc2)C1=O (configuration not stated),112 to 115
25,COc1ccc(C)cc1NC(=O)Nc1ccc(N2CCN(C(=O)Nc3c(C)cccc3OC)CC2)cc1,200 to 203

row,Compound,melting point [°C]
1,O=C(O)c1ccc2c(c1)Sc1ccccc1CC2,196 to 198
2,COc1ccc(Oc2cccc3ncnc(NC(=O)Nc4ccccc4)c23)cc1,231 to 232
3,CC12CCC(=O)C=C1CCC1C2CCC2(C)C(n3cnc4ccccc43)=CCC12 (configuration not stated),201 to 204
4,O=S(=O)(Nc1cccc(Cl)c1Cl)c1cc(S(=O)(=O)Nc2cccc(Cl)c2Cl)c2cc(O)ccc2c1,117 to 119
5,CC(C)=C(C(=O)O)c1cc(C(C)C)c(O)c2c(Cc3ccccc3)cccc12,264 to 266
6,COc1ccc(/C(=C/C=C/C(=O)Oc2ccc([N+](=O)[O-])cc2)C(C)C)cc1,95 to 96.5
7,Cc1cccc(N2C(=S)SC(C)C2(C)O)n1 (configuration not stated),129
8,Cc1nc(C(=O)Nc2cccc(Cl)c2Cl)c(C)n1-c1ccccc1,127 to 129
9,CN1CC=C(c2cn(-c3cccnc3)c3ccc([N+](=O)[O-])cc23)CC1,175 to 177
10,O=C(NCCc1ccc(O)c(O)c1)OCc1ccccc1,129 to 130
11,Nc1cc2c(cc1Br)C(=O)OC2,235 to 241
12,Fc1ccc(C(Cl)(Cn2cncn2)C2(n3cncn3)CC2)cc1 (configuration not stated),81 to 84
13,O=C(NN=CC(Cl)(Cl)Cl)c1cccc(Oc2cccc(C(F)(F)F)c2)n1,81 to 82
14,COc1cc2cc(c1Cl)N(C)C(=O)CC(OC(=O)C(C)N(C)C(=O)C(C)C)C1(C)OC1C(C)C1CC(O)(NC(=O)O1)C(OC)C=CC=C(C)C2OC (configuration not stated),176 to 179
15,CN1CCN(c2cccc3ccc(NC(=O)c4ccccc4)cc23)CC1,173 to 175
16,O=C(O)CCNC(=O)C(=Cc1ccc(-c2ccccc2)cc1)CS,125
17,CN(C)CC=C(c1ccc(-c2ccccc2)cc1)c1ccc(-c2ccccc2)cc1,94 to 95
18,CCN1C(=O)Cc2cc3c(cc21)C(O)CO3 (configuration not stated),144 to 145
19,CCOC(=O)c1ccccc1COc1ccc(C=O)cc1,60 to 62
20,Cc1ccc(NCCNS(C)(=O)=O)cc1O,145
21,COC(=O)C(CC(C)C)NC(=O)C(CC(N)=O)NC(=O)OCc1ccccc1 (stereo not drawn) (Cbz-Asn-Leu-OMe; configuration not given here),191 to 193
22,O=C1COc2ccc(C3=Nc4ccccc4SC3c3ccc(Cl)cc3)cc2N1 (configuration not stated),153 to 155
